Reference: patent publication US12522602B2, “Derivatives having 2,3-dihydro-1H-indene or 2,3-dihydrobenzofuran moiety or pharmaceutically acceptable salt thereof and pharmaceutical compositions comprising the same” (YUHAN CORPORATION, priority 2019, dated 2026)

The compounds below were run on GM1 production in Jurkat cells (assay: cells). Settings: Homo sapiens, Jurkat, 72 h.
Type: cell-based

In order of rising IC50:
1. COc1ccc(OC)c(-c2ccc3c(c2)CC(C)(C)C3NC(=O)O[C@@H]2CN3CCC2CC3)c1 (stereo partly drawn) [Example 167, (S)-quinuclidin-3-yl (5-(2,5-dimethoxyphenyl)-2,2-dimethyl-2,3-dihydro-1H-inden-1-yl)carbamate]  3.8 nM
2. CC(C)(C)OCc1ccc(-c2ccc3c(c2)CC(C)(C)C3NC(=O)O[C@@H]2CN3CCC2CC3)cc1 (stereo partly drawn) [Example 181, (S)-quinuclidin-3-yl (5-(4-(tert-butoxymethyl)phenyl)-2,2-dimethyl-2,3-dihydro-1H-inden-1-yl)carbamate]  5.5 nM
3. CCCCc1ccc(-c2ccc3c(c2)CC(C)(C)C3NC(=O)O[C@@H]2CN3CCC2CC3)cc1 (stereo partly drawn) [Example 164, (S)-quinuclidin-3-yl (5-(4-butylphenyl)-2,2-dimethyl-2,3-dihydro-1H-inden-1-yl)carbamate]  6.5 nM
4. CC1(C)Cc2cc(-c3cccc(OCCF)c3)ccc2C1NC(=O)O[C@@H]1CN2CCC1CC2 (stereo partly drawn) [Example 197, (S)-quinuclidin-3-yl (5-(3-(2-fluoroethoxy)phenyl)-2,2-dimethyl-2,3-dihydro-1H-inden-1-yl)carbamate]  8.7 nM
5. COc1cccc(OC)c1-c1ccc2c(c1)CC(C)(C)C2NC(=O)O[C@@H]1CN2CCC1CC2 (stereo partly drawn) [Example 168, (S)-quinuclidin-3-yl (5-(2,6-dimethoxyphenyl)-2,2-dimethyl-2,3-dihydro-1H-inden-1-yl)carbamate]  9.6 nM
6. COc1cc(OC)cc(-c2ccc3c(c2)CC(C)(C)C3NC(=O)O[C@@H]2CN3CCC2CC3)c1 (stereo partly drawn) [Example 169, (S)-quinuclidin-3-yl (5-(3,5-dimethoxyphenyl)-2,2-dimethyl-2,3-dihydro-1H-inden-1-yl)carbamate]  9.8 nM
7. CC1(C)Cc2cc(-c3ccc(OCC4CC4)nc3)ccc2C1NC(=O)O[C@@H]1CN2CCC1CC2 (stereo partly drawn) [Example 185, (S)-quinuclidin-3-yl (5-(6-(cyclopropylmethoxy)pyridin-3-yl)-2,2-dimethyl-2,3-dihydro-1H-inden-1-yl)carbamate]  11.1 nM
8. CCCc1ccc(-c2ccc3c(c2)CC(C)(C)C3NC(=O)O[C@@H]2CN3CCC2CC3)cc1 (stereo partly drawn) [Example 163, (S)-quinuclidin-3-yl (2,2-dimethyl-5-(4-propylphenyl)-2,3-dihydro-1H-inden-1-yl)carbamate]  12.2 nM
9. CCOc1ccc(-c2ccc3c(c2)CC(C)(C)C3NC(=O)O[C@@H]2CN3CCC2CC3)cc1C(F)(F)F (stereo partly drawn) [Example 170, (S)-quinuclidin-3-yl (5-(4-ethoxy-3-(trifluoromethyl)phenyl)-2,2-dimethyl-2,3-dihydro-1H-inden-1-yl)carbamate]  13 nM
10. CC1(C)Cc2cc(-c3cccc(-c4ccccc4)c3)ccc2C1NC(=O)O[C@@H]1CN2CCC1CC2 (stereo partly drawn) [Example 190, (S)-quinuclidin-3-yl (5-([1,1′-biphenyl]-3-yl)-2,2-dimethyl-2,3-dihydro-1H-inden-1-yl)carbamate]  13.3 nM
11. CC1(C)Cc2cc(-c3ccco3)ccc2C1NC(=O)O[C@@H]1CN2CCC1CC2 (stereo partly drawn) [Example 193, (S)-quinuclidin-3-yl (5-(furan-2-yl)-2,2-dimethyl-2,3-dihydro-1H-inden-1-yl)carbamate]  15.3 nM
12. COc1cccc(-c2ccc3c(c2)CC(C)(C)C3NC(=O)O[C@@H]2CN3CCC2CC3)c1OC (stereo partly drawn) [Example 165, (S)-quinuclidin-3-yl (5-(2,3-dimethoxyphenyl)-2,2-dimethyl-2,3-dihydro-1H-inden-1-yl)carbamate]  15.6 nM
13. COc1cc(F)c(-c2ccc3c(c2)CC(C)(C)C3NC(=O)O[C@@H]2CN3CCC2CC3)cc1F (stereo partly drawn) [Example 171, (S)-quinuclidin-3-yl (5-(2,5-difluoro-4-methoxyphenyl)-2,2-dimethyl-2,3-dihydro-1H-inden-1-yl)carbamate]  17 nM
14. CC1(C)Cc2cc(-c3ccc(C(F)(F)F)cc3Cl)ccc2C1NC(=O)O[C@@H]1CN2CCC1CC2 (stereo partly drawn) [Example 183, (S)-quinuclidin-3-yl (5-(2-chloro-4-(trifluoromethyl)phenyl)-2,2-dimethyl-2,3-dihydro-1H-inden-1-yl)carbamate]  18.6 nM
15. CC1(C)Cc2cc(-c3cccc(C(F)(F)F)c3Cl)ccc2C1NC(=O)O[C@@H]1CN2CCC1CC2 (stereo partly drawn) [Example 182, (S)-quinuclidin-3-yl (5-(2-chloro-3-(trifluoromethyl)phenyl)-2,2-dimethyl-2,3-dihydro-1H-inden-1-yl)carbamate]  20.9 nM
16. CCOc1ccccc1-c1ccc2c(c1)CC(C)(C)C2NC(=O)O[C@@H]1CN2CCC1CC2 (stereo partly drawn) [Example 177, (S)-quinuclidin-3-yl (5-(2-ethoxyphenyl)-2,2-dimethyl-2,3-dihydro-1H-inden-1-yl)carbamate]  22.9 nM
17. COc1ccc2cc(-c3ccc4c(c3)CC(C)(C)C4NC(=O)O[C@@H]3CN4CCC3CC4)ccc2c1 (stereo partly drawn) [Example 189, (S)-quinuclidin-3-yl (5-(6-methoxynaphthalen-2-yl)-2,2-dimethyl-2,3-dihydro-1H-inden-1-yl)carbamate]  23 nM
18. CC(C)Oc1ccc(-c2ccc3c(c2)CC(C)(C)C3NC(=O)O[C@@H]2CN3CCC2CC3)cn1 (stereo partly drawn) [Example 196, (S)-quinuclidin-3-yl (5-(6-isopropoxypyridin-3-yl)-2,2-dimethyl-2,3-dihydro-1H-inden-1-yl)carbamate]  23.2 nM
19. Cc1cc(C)cc(-c2ccc3c(c2)CC(C)(C)C3NC(=O)O[C@@H]2CN3CCC2CC3)c1 (stereo partly drawn) [Example 192, (S)-quinuclidin-3-yl (5-(3,5-dimethylphenyl)-2,2-dimethyl-2,3-dihydro-1H-inden-1-yl)carbamate]  25.8 nM
20. COc1ccc(-c2ccc3c(c2)CC(C)(C)C3NC(=O)O[C@@H]2CN3CCC2CC3)c(OC)c1 (stereo partly drawn) [Example 166, (S)-quinuclidin-3-yl (5-(2,4-dimethoxyphenyl)-2,2-dimethyl-2,3-dihydro-1H-inden-1-yl)carbamate]  26.3 nM
21. CC1(C)Cc2cc(-c3cc(OC(F)(F)F)ccc3Cl)ccc2C1NC(=O)O[C@@H]1CN2CCC1CC2 (stereo partly drawn) [Example 178, (S)-quinuclidin-3-yl (5-(2-chloro-5-(trifluoromethoxy)phenyl)-2,2-dimethyl-2,3-dihydro-1H-inden-1-yl)carbamate]  26.9 nM
22. COc1ccccc1-c1ccc2c(c1)CC(C)(C)C2NC(=O)O[C@@H]1CN2CCC1CC2 (stereo partly drawn) [Example 176, (S)-quinuclidin-3-yl (5-(2-methoxyphenyl)-2,2-dimethyl-2,3-dihydro-1H-inden-1-yl)carbamate]  27.6 nM
23. COc1ccc(-c2ccc3c(c2)CC(C)(C)C3NC(=O)O[C@@H]2CN3CCC2CC3)c(C)c1 (stereo partly drawn) [Example 180, (S)-quinuclidin-3-yl (5-(4-methoxy-2-methylphenyl)-2,2-dimethyl-2,3-dihydro-1H-inden-1-yl)carbamate]  28.1 nM
24. CC(C)(C)Oc1cc(-c2ccc3c(c2)CC(C)(C)C3NC(=O)O[C@@H]2CN3CCC2CC3)ccn1 (stereo partly drawn) [Example 187, (S)-quinuclidin-3-yl (5-(2-(tert-butoxy)pyridin-4-yl)-2,2-dimethyl-2,3-dihydro-1H-inden-1-yl)carbamate]  31.7 nM
25. CCCOc1c(C)cc(-c2ccc3c(c2)CC(C)(C)C3NC(=O)O[C@@H]2CN3CCC2CC3)cc1C (stereo partly drawn) [Example 173, (S)-quinuclidin-3-yl (5-(3,5-dimethyl-4-propoxyphenyl)-2,2-dimethyl-2,3-dihydro-1H-inden-1-yl)carbamate]  34.8 nM
26. COc1c(C)cc(-c2ccc3c(c2)CC(C)(C)C3NC(=O)O[C@@H]2CN3CCC2CC3)cc1C (stereo partly drawn) [Example 195, (S)-quinuclidin-3-yl (5-(4-methoxy-3,5-dimethylphenyl)-2,2-dimethyl-2,3-dihydro-1H-inden-1-yl)carbamate]  36.1 nM
27. COc1ccc(-c2ccc3c(c2)CC(C)(C)C3NC(=O)O[C@@H]2CN3CCC2CC3)c(OC)n1 (stereo partly drawn) [Example 184, (S)-quinuclidin-3-yl (5-(2,6-dimethoxypyridin-3-yl)-2,2-dimethyl-2,3-dihydro-1H-inden-1-yl)carbamate]  40 nM
28. CCOc1c(C)cc(-c2ccc3c(c2)CC(C)(C)C3NC(=O)O[C@@H]2CN3CCC2CC3)cc1C (stereo partly drawn) [Example 174, (S)-quinuclidin-3-yl (5-(4-ethoxy-3,5-dimethylphenyl)-2,2-dimethyl-2,3-dihydro-1H-inden-1-yl)carbamate]  40.2 nM
29. COc1cc(F)ccc1-c1ccc2c(c1)CC(C)(C)C2NC(=O)O[C@@H]1CN2CCC1CC2 (stereo partly drawn) [Example 179, (S)-quinuclidin-3-yl (5-(4-fluoro-2-methoxyphenyl)-2,2-dimethyl-2,3-dihydro-1H-inden-1-yl)carbamate]  41 nM
30. CCc1ccccc1-c1ccc2c(c1)CC(C)(C)C2NC(=O)O[C@@H]1CN2CCC1CC2 (stereo partly drawn) [Example 175, (S)-quinuclidin-3-yl (5-(2-ethylphenyl)-2,2-dimethyl-2,3-dihydro-1H-inden-1-yl)carbamate]  42.8 nM
31. COc1ncc(-c2ccc3c(c2)CC(C)(C)C3NC(=O)O[C@@H]2CN3CCC2CC3)cc1C(F)(F)F (stereo partly drawn) [Example 188, (S)-quinuclidin-3-yl (5-(6-methoxy-5-(trifluoromethyl)pyridin-3-yl)-2,2-dimethyl-2,3-dihydro-1H-inden-1-yl)carbamate]  46.2 nM
32. Cc1cc(-c2ccc3c(c2)CC(C)(C)C3NC(=O)O[C@@H]2CN3CCC2CC3)cc(C)c1OC(C)C (stereo partly drawn) [Example 194, (S)-quinuclidin-3-yl (5-(4-isopropoxy-3,5-dimethylphenyl)-2,2-dimethyl-2,3-dihydro-1H-inden-1-yl)carbamate]  47.6 nM
33. CC(C)Oc1ccc(F)c(-c2ccc3c(c2)CC(C)(C)C3NC(=O)O[C@@H]2CN3CCC2CC3)c1 (stereo partly drawn) [Example 172, (S)-quinuclidin-3-yl (5-(2-fluoro-5-isopropoxyphenyl)-2,2-dimethyl-2,3-dihydro-1H-inden-1-yl)carbamate]  48.5 nM
34. CC1(C)Cc2cc(-c3cc4ccccc4s3)ccc2C1NC(=O)O[C@@H]1CN2CCC1CC2 (stereo partly drawn) [Example 186, (S)-quinuclidin-3-yl (5-(benzo[b]thiophen-2-yl)-2,2-dimethyl-2,3-dihydro-1H-inden-1-yl)carbamate]  82.6 nM
35. CC1(C)Cc2cc(-c3ccc4nccnc4c3)ccc2C1NC(=O)O[C@@H]1CN2CCC1CC2 (stereo partly drawn) [Example 191, (S)-quinuclidin-3-yl (2,2-dimethyl-5-(quinoxalin-6-yl)-2,3-dihydro-1H-inden-1-yl)carbamate]  123 nM
